In patent publication US20200038399A1, “FORMULATIONS, METHODS, KIT, AND DOSAGE FORMS FOR TREATING BACTERIAL INFECTION” (Motif BioSciences Inc., priority 2016, published 2020):

Key:
[1] = test system: S. pneumoniae 1/1; assay: MIC determination; assay type: cell-based, Streptococcus pneumoniae; details: Streptococcus pneumoniae; S. pneumoniae 1/1; 18 hours at 37° C., 5% CO2; read-out: Minimum inhibitory concentrations (MIC)
Method: (§1) Minimum inhibitory concentration (MIC) determination.
(§2) In order to choose the appropriate concentrations to be tested in the checkerboard experiments, minimum inhibitory concentrations (MICs) were determined first. […] Table 6) in microtiter plates. Stock solutions (10 mg/ml) of reference antibiotics were prepared in DMSO (except for tobramycin, gentamicin, lomefloxacin, tetracycline) and stored at 4° C. The bacteria were grown in Mueller-Hinton Broth (BBL Mueller-Hinton Broth II, cation adjusted). S. pneumoniae was grown in Mueller-Hinton Broth supplemented with 5% (v/v) lysed sheep blood. For the growth of H. influenzae HTM (Haemophilus test medium) was used containing Mueller-Hinton broth, yeast extract ([…], Difco) and supplemented with NAD and hematin (HTM Supplement, Oxoid SR0158E). M. catarrhalis was grown in Brain Heart Infusion medium (Oxoid). The bacteria were incubated for 18 hours at 37° C. in ambient air except for S. pneumoniae, H. influenzae and M. catarrhalis, which were incubated in the presence of 5% CO2. The MIC was determined as the lowest concentration of an individual drug that lead to no visible growth.

[2] = test system: S. pneumoniae 1/1; assay: checkerboard synergy assay with iclaprim; assay type: cell-based, Streptococcus pneumoniae; details: antibiotic in combination with iclaprim
Method: (§3) The synergistic potential of iclaprim against Gram-positive and Gram-negative bacteria was determined using the checkerboard assay as described in Eliopoulos GM and Moellering, Jr. RC (1991), Antimicrobial combinations, pp. 432-492, in V. Lorian (ed.), Antibiotics in laboratory medicine, 3rd Ed., The Williams & Wilkins Co., Baltimore, the entire disclosure of which is herein incorporated by reference, allowing multiple test concentrations of iclaprim to be assayed in the presence of various concentrations of the other antibiotic in microtiter plates. The same growth media and conditions were used as described in 3.2 below.
(§4) Two different dilutions were used for iclaprim depending on the MIC determined for the bacterium. […] Iclaprim and the other antibiotic being tested were also dispensed alone in the last row and in the last column, respectively, as controls.
(§5) The Fractional Inhibitory Concentrations (FIC) for each added agent were calculated and used to determine the sum of FIC (ΣFIC) indicative of the synergistic potential of a given combination as described in Veyssier P. (1999), Inhibiteurs de la dihydrofolate reductase, nitrohétérocycles (furanes) et 8-hydroxyquinoleines, pp. 995-1027, in A. Bryskier (ed.), Antibiotiques agents antibatériens et antifongiques, 1st Ed., Ellipses Edition Marketing SA, Paris, the entire disclosure of which is herein incorporated by reference. Synergy was defined whereby the ΣFIC was <0.5, indifference (no synergy nor antagonism) whereby ΣFIC was ≥0.5 but ≤4, and antagonism whereby ΣFIC was >4. Additivity as a special form of indifference was defined whereby the ΣFIC was ≥0.5 but <1, for example as described in Stevens, D L et al. (1998), In vitro antimicrobial effects of various combinations of penicillin and clindamycin against four strains of Streptococcus pyogenes, J. Antimicrob. Chemother. 42: 1266-1268, the entire disclosure of which is herein incorporated by reference.

[3] = test system: S. aureus 101; assay: MIC determination; assay type: cell-based, Staphylococcus aureus; details: Staphylococcus aureus, 101, 18 h; read-out: Minimum inhibitory concentrations (MIC)
Method: as §1, §2

[4] = test system: Streptococcus pneumoniae ATCC 49619; assay: MIC determination; assay type: cell-based; details: Streptococcus pneumoniae, ATCC49619; S. pneumoniae 49619; 18 hours at 37° C., 5% CO2; read-out: Minimum inhibitory concentrations (MIC)
Method: as §1, §2

[5] = test system: Klebsiella pneumoniae ATCC 33495; assay: MIC determination; assay type: cell-based; details: Klebsiella pneumoniae, ATCC33495; K. pneumonia 33495; 18 hours at 37° C.; read-out: Minimum inhibitory concentrations (MIC)
Method: as §1, §2

[6] = test system: Moraxella catarrhalis RA 21; assay: MIC determination; assay type: cell-based; details: Moraxella catarrhalis, RA21; M. catarrhalis RA 21; 18 hours at 37° C., 5% CO2; read-out: Minimum inhibitory concentrations (MIC)
Method: as §1, §2

[7] = test system: Staphylococcus aureus ATCC 25923; assay: MIC determination; assay type: cell-based; details: Staphylococcus aureus, ATCC25923; S. aureus 25923; 18 hours at 37° C.; read-out: Minimum inhibitory concentrations (MIC)
Method: as §1, §2

[8] = test system: Haemophilus influenzae ATCC 49766; assay: MIC determination; assay type: cell-based; details: Haemophilus influenzae, ATCC49766; H. Influenza 49766; 18 hours at 37° C., 5% CO2; read-out: Minimum inhibitory concentrations (MIC)
Method: as §1, §2

[9] = test system: S. aureus 101; assay: checkerboard synergy assay with iclaprim; assay type: cell-based, Staphylococcus aureus; details: antibiotic in combination with iclaprim
Method: as §3, §4, §5

[10] = test system: Streptococcus pneumoniae ATCC 49619; assay: checkerboard synergy assay with iclaprim; assay type: cell-based; details: antibiotic in combination with iclaprim; S. pneumoniae 49619
Method: as §3, §4, §5

[11] = test system: Klebsiella pneumoniae ATCC 33495; assay: checkerboard synergy assay with iclaprim; assay type: cell-based; details: antibiotic in combination with iclaprim; K. pneumoniae 33495
Method: as §3, §4, §5

[12] = test system: Moraxella catarrhalis RA 21; assay: checkerboard synergy assay with iclaprim; assay type: cell-based; details: antibiotic in combination with iclaprim; M. catarrhalis RA 21
Method: as §3, §4, §5

[13] = test system: Staphylococcus aureus ATCC 25923; assay: checkerboard synergy assay with iclaprim; assay type: cell-based; details: antibiotic in combination with iclaprim; S. aureus 25923
Method: as §3, §4, §5

[14] = test system: Haemophilus influenzae ATCC 49766; assay: checkerboard synergy assay with iclaprim; assay type: cell-based; details: antibiotic in combination with iclaprim; H. influenzae 49766
Method: as §3, §4, §5

Compound | MIC [1] [µg/mL] | Σ FIC [2] | MIC [3] [µg/mL] | MIC [4] [µg/mL] | MIC [5] [µg/mL] | MIC [6] [µg/mL] | MIC [7] [µg/mL] | MIC [8] [µg/mL] | Σ FIC [9] | Σ FIC [10] | Con (Conclusion) [11] | Σ FIC [11] | Con (Conclusion) [12] | Σ FIC [12] | Σ FIC [13] | Con (Conclusion) [14] | Σ FIC [14]
C[C@@H]1O[C@@H]1P(=O)(O)O [Fosfomycin] | 32 | 1.00-1.06 | 64 | 32 | > 128 | 128 | 8 | 0.062 | 1.03-1.50 | 1.06-1.50 | Ind (Indifference (Ind)) | 1.01-1.50 | Ind (Indifference (Ind)) | 1.02-1.50 | 1.13-1.50 | Ad (Additivity (Ad)) | 0.74-1.12
Cc1onc(-c2ccccc2Cl)c1C(=O)N[C@@H]1C(=O)N2[C@@H]1SC(C)(C)[C@@H]2C(=O)O [Cloxacillin] | 64 | 1.00-1.25 | 2 | 8 | > 128 | 64 | 0.25 | 16 | 1.00-1.25 | 1.00-1.25 | Ind (Indifference (Ind)) | 1.01-2.50 | Ad (Additivity (Ad)) | 0.53-1.00 | 0.99-1.25 | Ind (Indifference (Ind)) | 1.13-1.50
CO[C@H]1/C=C/O[C@@]2(C)Oc3c(C)c(O)c4c(O)c(c(/C=N/N5CCN(C)CC5)c(O)c4c3C2=O)NC(=O)/C(C)=C\C=C\[C@H](C)[C@H](O)[C@@H](C)[C@@H](O)[C@@H](C)[C@H](OC(C)=O)[C@@H]1C [Rifampicin] | 0.063 | 0.56-1.12 | 0.031 | 0.031 | > 128 | 0.063 | 0.031 | 0.063 |  | 0.75-0.76 | Ind (Indifference (Ind)) | 1.01-1.50 | Ad (Additivity (Ad)) | 0.75-1.12 |  | Ind (Indifference (Ind)) | 1.12-1.50
CO/N=C(\C(=O)N[C@@H]1C(=O)N2C(C(=O)O)=C(COC(C)=O)CS[C@H]12)c1csc(N)n1 [Cefotaxime] | 8 | 0.63-1.06 | 32 | 0.25 | 0.5 | 4 | 4 | 0.063 | 1.06-1.50 |  | Ind (Indifference (Ind)) | 1.13-1.50 | Ad (Additivity (Ad)) | 0.56-1.03 | 1.03-1.50 | Ad (Additivity (Ad)) | 
O=C(N[C@H](CO)[C@H](O)c1ccc([N+](=O)[O-])cc1)C(Cl)Cl [Chloramphenicol] | 16 |  | 64 | 4 | > 128 | 0.5 | 8 | 0.5 | 0.63-1.13 | 0.75-1.25 | Ind (Indifference (Ind)) | 1.01-1.50 | Ind (Indifference (Ind)) | 1.25-1.50 | 1.13-2.50 | Ind (Indifference (Ind)) | 1.06-1.50
CC1(C)S[C@@H]2[C@H](NC(=O)[C@H](N)c3ccccc3)C(=O)N2[C@H]1C(=O)O [Ampicillin] | 16 |  | > 128 | 0.5 | > 128 | 16 | 0.5 | 1 |  |  | Ad (Additivity (Ad)) |  | Ind (Indifference (Ind)) |  | 1.00-1.00 | Ind (Indifference (Ind)) | 1.13-1.50
